Here are results for 8 compounds from US20240300980A1, “HETEROCYCLIC COMPOUNDS AS KRAS INHIBITOR, AND PREPARATION THEREFOR AND USE THEREOF IN TREATMENT” (SHANGHAI KECHOW PHARMA, INC., priority 2021, published 2024).

By pIC50 is commonly meant −log10 of the IC50, conventionally taken in molar units.

pIC50: −log10 of the molar value.

For one test, the system named is AGS cells (KRAS^G12D). Briefly: Detection of cell proliferation in vitro by MTT/MTS method (cell activity experiment). The class given is cell-based. The settings on record: AGS cells; MTT/MTS; 3 days of drug treatment; read-out: AGS IC50. The method, then: The above cells were cultured in a complete medium containing 10% fetal bovine serum, 100 IU/mL penicillin and 100 jag/mL streptomycin, in the aseptic incubator with 95% relative humidity and 5% CO2 concentration.
2. Reagents: F12K, D-PBS, FBS, Penicillin Streptomycin, Tryple, MTT (5 mg/mL)
Appropriate amount of compound powder was weighed in a 1.5 mL centrifuge tube, then the corresponding volume of dimethyl sulfoxide (DMSO) was added to form a 20 mM reserve solution. The solution was packed separately and stored in a refrigerator at −20° C. away from light.
The cells were inoculated in a cell culture bottle, added an appropriate amount of complete medium, and cultured in a sterile incubator. When the degree of cell confluence reached more than 80%, subculture was carried out.
The adherent cells in logarithmic growth phase were digested by trypsin or the suspension cells were collected by centrifugation and counted. 90 μL cell suspension was inoculated into 96-well plate according to the cell inoculation density of 1000 cells per well, and 10 μL of 10-fold final concentration compound diluted by culture medium was added 24 hours later. Compared with the hole with the same volume of 5% DMSO as control, the final concentration of DMSO was 0.5%. After 3 days of drug treatment, the cell viability was detected by MTT. The specific methods are as follows: 10 μL MTT per well was added into the incubator for 4 hours, the supernatant was discarded and 150 μL DMSO was added to dissolve the crystal methylazan, and the absorbance of 490 nm was detected by enzyme labeling instrument, or 10 μL MITS per well was added to the incubator for 4 hours, and […] absorbance was detected directly by enzyme labeling instrument. GraphPad Prism 6 software makes dose-effect curve and calculates IC50.
On the technique in general: Formazan colour is commonly taken as a measure of viable cells.
On to `C#Cc1cccc2cc(O)cc(-c3ccc4c(N5C[C@H]6CC[C@@H](C5)[C@@H]6F)nc(OC[C@@]56CCCN5C[C@H](F)C6)nc4c3F)c12` [Example 125, 5-ethynyl-4-(8-fluoro-4-((1R,5S,8R)-8-fluoro-3-azabicyclo [3.2.1]octan-3-yl)-2-(((2R,7aS)-2-fluorotetrahydro-1H-pyrrolizin-7a(5H)-yl)methoxy)quinazolin-7-yl)naphthalen-2-ol], for which the pIC50 is less than 5.60.

Staying with this test, now noted: Homo sapiens, AGS, 72 h, AGS cells; MTT/MTS; 3 days of drug treatment; read-out: AGS IC50.
Take `C#Cc1cccc2cc(O)cc(-c3ccc4c(N5C[C@H]6CC[C@@H](C5)N6)nc(OC[C@@]56CCCN5C[C@H](F)C6)nc4n3)c12` [Example 144, 4-(4-((1R,5S)-3,8-diazabicyclo[3.2.1]octan-3-yl)-2-(((2R,7aS)-2-fluorotetrahydro-1H-pyrrolizin-7a(5H)-yl)methoxy)pyrido[2,3-d]pyrimidin-7-yl)-5-ethynylnaphthalen-2-ol]: the negative-log IC50 (pIC50) was less than 5.60.

Regarding `CCc1c(F)ccc2cc(O)cc(-c3ncc4c(N5C[C@H]6CC[C@@H](C5)N6)c(C#N)c(OC[C@@]56CCCN5C[C@H](F)C6)nc4c3F)c12` [Example 192, 4-((1R,5S)-3,8-diazabicyclo[3.2.1]octan-3-yl)-7-(8-ethyl-7-fluoro-3-hydroxynaphthalen-1-yl)-8-fluoro-2-(((2R,7aS)-2-fluorotetrahydro-1H-pyrrolizin-7a(5H)-yl)methoxy)-1,6-naphthyridine-3-carbonitrile], the pIC50 is 6.92.

On to `C#Cc1cc2c(N3C[C@H]4CC[C@@H](C3)N4)nc(OC[C@@]34CCCN3C[C@H](F)C4)nc2c(F)c1-c1cc(O)cc2c1C(CC)C1CC21` (stereo partly drawn) [Example 372, 5-(4-((1R,5S)-3,8-diazabicyclo[3.2.1]octan-3-yl)-6-ethynyl-8-fluoro-2-(((2R,7aS)-2-fluorotetrahydro-1H-pyrrolizin-7a(5H)-yl)methoxy)quinazolin-7-yl)-6-ethyl-1,1a,6,6a-tetrahydrocyclopropa[a]inden-3-ol], for which the pIC50 is 7.19.

In the case of `C#Cc1c(F)ccc2cc(O)cc(-c3ncc4c(N5CC6CCC(C5)C6C#N)nc(OC[C@@]56CCCN5C[C@H](F)C6)nc4c3F)c12` (stereo partly drawn) [Example 62, (1R,5S,8S)-3-(7-(8-ethynyl-7-fluoro-3-hydroxynaphthalen-1-yl)-8-fluoro-2-(((2R, 7aS)-2-fluorotetrahydro-1H-pyrrolizin-7a(5H)-yl)methoxy)pyrido[4,3-d]pyrimidin-4-yl)-3-azabicyclo[3.2.1] octane-8-carbonitrile], the negative logarithm of the IC50 (pIC50) was less than 5.60.

For the compound `C#Cc1nccc2cc(O)cc(-c3ncc4c(N5C[C@H]6CC[C@@H](C5)N6)nc(OC[C@@]56CCCN5C[C@H](F)C6)nc4c3F)c12` [Example 339, 8-(4-((1R,5S)-3,8-diazabicyclo[3.2.1]octan-3-yl)-8-fluoro-2-(((2R,7aS)-2-fluorotetrahydro-1H-pyrrolizin-7a(5H)-yl)methoxy)pyrido[4,3-d]pyrimidin-7-yl)-1-ethynylisoquinolin-6-ol], the pIC50 is 7.82.

For the compound `CCC1c2c(-c3ncc4c(N5C[C@H]6CC[C@@H](C5)N6)nc(OC[C@@]56CCCN5C[C@H](F)C6)nc4c3F)cc(O)cc2C2CC21` (stereo partly drawn) [Example 355, 5-(4-((1R,5S)-3,8-diazabicyclo[3.2.1]octan-3-yl)-8-fluoro-2-(((2R,7aS)-2-fluorotetrahydro-1H-pyrrolizin-7a(5H)-yl)methoxy)pyrido[4,3-d]pyrimidin-7-yl)-6-ethyl-1,1a,6,6a-tetrahydrocyclopropa[a]inden-3-ol], the pIC50 was 7.70.

For `C#Cc1c(F)ccc2cc(O)cc(-c3ccc4c(NCC5(N(C)C)CCC5)nc(OC[C@@]56CCCN5C[C@H](F)C6)nc4c3F)c12` [Example 430, 4-(4-(((1-(dimethylamino)cyclobutyl)methyl)amino)-8-fluoro-2-(((2R,7aS)-2-fluorotetrahydro-1H-pyrrolizin-7a(5H)-yl)methoxy)quinazolin-7-yl)-5-ethynyl-6-fluoronaphthalen-2-ol], the negative-log IC50 (pIC50) is 7.46.
